In US20160039880A1 (priority 2012, published 2016):
Values after ≈ are worked out from the molar mass of the structure shown. Like-named read-outs stand apart in the source and are kept apart here.

Legend:
[1] = molecular target: Human recombinant cyclophilin A (Cyp A) (Homo sapiens, UniProt P62937); assay: Protease-free PPIase assay;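 note: cis to trans isomerization of SUC-AAPF-pNA by 2 nM enzyme, read as absorbance at 330 nm over 300 s at 10 °C, catalytic rate corrected for uncatalyzed background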
Sequence of Human recombinant cyclophilin A (Cyp A) (P62937 whole entry): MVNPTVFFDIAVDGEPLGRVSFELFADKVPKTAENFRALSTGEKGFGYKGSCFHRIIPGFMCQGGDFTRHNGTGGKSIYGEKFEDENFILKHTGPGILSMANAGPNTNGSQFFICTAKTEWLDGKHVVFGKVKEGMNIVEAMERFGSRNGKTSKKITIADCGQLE

[2] = Water Solubility Assay (measured in pH 7.8 buffer); assay type: physicochemical;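 note: precipitation onset detected as rise in absorbance at 650 nm across increasing concentrations, after shaking for 18 h, blank wells receiving DMSO only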
[3] = 35 mM HEPES buffer pH 7.8, 25 °C, aqueous buffer, kinetic from dmso stock, pH 7.8 buffer, read-out: Water Solubility Assay
[4] = 25 °C, pH 7.8, aqueous buffer, kinetic from dmso stock

Row | SMILES | Ki [1] [nM] | solubility at 18 h [2, 3] [µM] | solubility at 18 h [2, 4] [µM] | Ki ([1]; read-out: Protease-free PPIase Assay Ki, cyclophilin A, 10 °C) [nM] | solubility at 18 h ([2]; 35 mM HEPES pH 7.8, 1% DMSO, 25 °C, 18 h, read-out: Water Solubility Assay, concentration at which the compound remains in solution) [µM]
1 | CC[C@H]1NC(=O)[C@@H]([C@H](O)[C@H](C)CCN(C)Cc2ccccn2)N(C)C(=O)[C@@H](C(C)C)N(C)C(=O)[C@@H](CC(C)C)N(C)C(=O)[C@@H](CC(C)C)N(C)C(=O)[C@H](C)NC(=O)[C@@H](C)NC(=O)[C@@H](CC(C)C)N(C)C(=O)[C@@H](C(C)C)NC(=O)[C@H](CC(C)C)N(C)C(=O)[C@@H](C)N(C)C1=O [Compound DA, [(3R,4R,5S)-4-Hydroxy-3-methyl-5-(methylamino)-1-({pyridin-2-ylmethyl}-methylamino)-hexanoic acid]^1[(R)-methyl-Sar]^3 cyclosporin A] | 4.9 | 75 to 100 (≈ 98.3 to 131 µg/mL) | – | – | –
2 | CC[C@H]1NC(=O)[C@@H]([C@H](O)[C@H](C)CCN2CCn3cnnc3C2)N(C)C(=O)[C@@H](C(C)C)N(C)C(=O)[C@@H](CC(C)C)N(C)C(=O)[C@@H](CC(C)C)N(C)C(=O)[C@H](C)NC(=O)[C@@H](C)NC(=O)C(CC(C)C)N(C)C(=O)[C@@H](C(C)C)NC(=O)[C@H](CC(C)C)N(C)C(=O)[C@@H](C)N(C)C1=O (stereo partly drawn) [Compound DU, [(3R,4R,5S)-1-(5,6-Dihydro-8H-[1,2,4]triazolo[4,3-a]pyrazin-7-yl)-4-Hydroxy-3-methyl-5-(methylamino)-hexanoic acid]^1[(R)-methyl-Sar]^3 cyclosporin A] | 9.2 | > 100 | – | – | –
3 | CC[C@H]1NC(=O)[C@@H]([C@H](O)[C@H](C)CCN(C)Cc2ncccn2)N(C)C(=O)[C@@H](C(C)C)N(C)C(=O)[C@@H](CC(C)C)N(C)C(=O)[C@@H](CC(C)C)N(C)C(=O)[C@H](C)NC(=O)[C@@H](C)NC(=O)[C@@H](CC(C)C)N(C)C(=O)[C@@H](C(C)C)NC(=O)[C@H](CC(C)C)N(C)C(=O)[C@@H](C)N(C)C1=O [Compound DG, [(3R,4R,5S)-4-Hydroxy-3-methyl-5-(methylamino)-1-({pyrimidin-2-ylmethyl}-methylamino)-hexanoic acid]^1[(R)-methyl-Sar]^3 cyclosporin A] | 8.5 | > 100 | – | – | –
4 | CC[C@H]1NC(=O)[C@@H]([C@H](O)[C@H](C)CCN2CCOCC2)N(C)C(=O)[C@@H](C(C)C)N(C)C(=O)[C@@H](CC(C)C)N(C)C(=O)[C@@H](CC(C)C)N(C)C(=O)[C@H](C)NC(=O)[C@@H](C)NC(=O)[C@@H](CC(C)C)N(C)C(=O)[C@@H](C(C)C)NC(=O)[C@H](CC(C)C)N(C)C(=O)[C@@H](CO)N(C)C1=O [Compound V, [(3R,4R,5S)-4-Hydroxy-3-methyl-5-(methylamino)-1-N-morpholino-hexanoic acid]^1[(R)-hydroxymethyl-Sar]^3 cyclosporin A] | 4.5 | – | > 100 | – | –
5 | CC[C@H]1NC(=O)[C@@H]([C@H](O)[C@H](C)CCN(C)Cc2cc(C(F)(F)F)nn2C)N(C)C(=O)[C@@H](C(C)C)N(C)C(=O)[C@@H](CC(C)C)N(C)C(=O)[C@@H](CC(C)C)N(C)C(=O)[C@H](C)NC(=O)[C@@H](C)NC(=O)[C@@H](CC(C)C)N(C)C(=O)[C@@H](C(C)C)NC(=O)[C@H](CC(C)C)N(C)C(=O)[C@@H](C)N(C)C1=O [Compound DO, [(3R,4R,5S)-4-Hydroxy-3-methyl-5-(methylamino)-1-({1-methyl-3-trifluoromethyl-2H-pyrazol-5-ylmethyl}-methylamino)-hexanoic acid]^1[(R)-methyl-Sar]^3 cyclosporin A] | 2.8 | 10 to 25 (≈ 13.8 to 34.5 µg/mL) | – | – | –
6 | CC[C@H]1NC(=O)[C@@H]([C@H](O)[C@H](C)CCN(C)CCOC)N(C)C(=O)[C@@H](C(C)C)N(C)C(=O)[C@@H](CC(C)C)N(C)C(=O)[C@@H](CC(C)C)N(C)C(=O)[C@H](C)NC(=O)[C@@H](C)NC(=O)[C@@H](CC(C)C)N(C)C(=O)[C@@H](C(C)C)NC(=O)[C@H](CC(C)C)N(C)C(=O)[C@@H](C)N(C)C1=O [Compound AG] | – | – | – | 18 | >100
7 | CC[C@H]1NC(=O)[C@@H]([C@H](O)[C@H](C)CCN(C)Cc2cccnc2)N(C)C(=O)[C@@H](C(C)C)N(C)C(=O)[C@@H](CC(C)C)N(C)C(=O)[C@@H](CC(C)C)N(C)C(=O)[C@H](C)NC(=O)[C@@H](C)NC(=O)[C@@H](CC(C)C)N(C)C(=O)[C@@H](C(C)C)NC(=O)[C@H](CC(C)C)N(C)C(=O)[C@@H](C)N(C)C1=O [Compound DF, [(3R,4R,5S)-4-Hydroxy-3-methyl-5-(methylamino)-1-({pyridin-3-ylmethyl}-methylamino)-hexanoic acid]^1[(R)-methyl-Sar]^3 cyclosporin A] | 14 | > 100 | – | – | –
8 | CC[C@H]1NC(=O)[C@@H]([C@H](O)[C@H](C)CCCCCN(CC)CC)N(C)C(=O)[C@@H](C(C)C)N(C)C(=O)[C@@H](CC(C)C)N(C)C(=O)[C@@H](CC(C)C)N(C)C(=O)[C@H](C)NC(=O)[C@@H](C)NC(=O)[C@@H](CC(C)C)N(C)C(=O)[C@@H](C(C)C)NC(=O)[C@H](CC(C)C)N(C)C(=O)[C@@H](C)N(C)C1=O [Compound AH, [(6R,7R,8S)-7-Hydroxy-6-methyl-8-(methylamino)-1-N-diethylamino-nonanoic acid]^1[(R)-methyl-Sar]^3 cyclosporin A] | 4.7 | – | > 100 | – | –
9 | CC[C@H]1NC(=O)[C@@H]([C@H](O)[C@H](C)CCN(C)c2ccccc2)N(C)C(=O)[C@@H](C(C)C)N(C)C(=O)[C@@H](CC(C)C)N(C)C(=O)[C@@H](CC(C)C)N(C)C(=O)[C@H](C)NC(=O)[C@@H](C)NC(=O)[C@@H](CC(C)C)N(C)C(=O)[C@@H](C(C)C)NC(=O)[C@H](CC(C)C)N(C)C(=O)[C@@H](C)N(C)C1=O [Compound DC, [(3R,4R,5S)-4-Hydroxy-3-methyl-5-(methylamino)-1-(methyl-phenyl-amino)-hexanoic acid]^1[(R)-methyl-Sar]^3 cyclosporin A] | 6 | – | 10 to 25 (≈ 13 to 32.4 µg/mL) | – | –
10 | CC[C@H]1NC(=O)[C@@H]([C@H](O)[C@H](C)CCN2CCOC(C)(C)C2)N(C)C(=O)[C@@H](C(C)C)N(C)C(=O)[C@@H](CC(C)C)N(C)C(=O)[C@@H](CC(C)C)N(C)C(=O)[C@H](C)NC(=O)[C@@H](C)NC(=O)C(CC(C)C)N(C)C(=O)[C@@H](C(C)C)NC(=O)[C@H](CC(C)C)N(C)C(=O)[C@@H](C)N(C)C1=O (stereo partly drawn) [Compound DS, [(3R,4R,5S)-1-(3,3-Dimethyl-morpholin-4-yl)-4-hydroxy-3-methyl-5-(methylamino)-hexanoic acid]^1[(R)-methyl-Sar]^3 cyclosporin A] | 12 | – | 75 to 100 (≈ 97.8 to 130 µg/mL) | – | –
11 | CC[C@H]1NC(=O)[C@@H]([C@H](O)[C@H](C)CCN2CCOc3ccccc32)N(C)C(=O)[C@@H](C(C)C)N(C)C(=O)[C@@H](CC(C)C)N(C)C(=O)[C@@H](CC(C)C)N(C)C(=O)[C@H](C)NC(=O)[C@@H](C)NC(=O)C(CC(C)C)N(C)C(=O)[C@@H](C(C)C)NC(=O)[C@H](CC(C)C)N(C)C(=O)[C@@H](C)N(C)C1=O (stereo partly drawn) [Compound DX, [(3R,4R,5S)-1-(2,3-Dihydro-benzo[1,4]oxazin-4-yl)-4-Hydroxy-3-methyl-5-(methylamino)-hexanoic acid]^1[(R)-methyl-Sar]^3 cyclosporin A] | 5.2 | 25 to 50 (≈ 33.1 to 66.2 µg/mL) | – | – | –
12 | CC[C@H]1NC(=O)[C@@H]([C@H](O)[C@H](C)CCN(C)Cc2cnccn2)N(C)C(=O)[C@@H](C(C)C)N(C)C(=O)[C@@H](CC(C)C)N(C)C(=O)[C@@H](CC(C)C)N(C)C(=O)[C@H](C)NC(=O)[C@@H](C)NC(=O)[C@@H](CC(C)C)N(C)C(=O)[C@@H](C(C)C)NC(=O)[C@H](CC(C)C)N(C)C(=O)[C@@H](C)N(C)C1=O [Compound DH, [(3R,4R,5S)-4-Hydroxy-3-methyl-5-(methylamino)-1-({pyrazin-2-ylmethyl}-methylamino)-hexanoic acid]^1[(R)-methyl-Sar]^3 cyclosporin A] | 9.1 | > 100 | – | – | –
13 | CC[C@H]1NC(=O)[C@@H]([C@H](O)[C@H](C)CCN(C)Cc2ccncc2)N(C)C(=O)[C@@H](C(C)C)N(C)C(=O)[C@@H](CC(C)C)N(C)C(=O)[C@@H](CC(C)C)N(C)C(=O)[C@H](C)NC(=O)[C@@H](C)NC(=O)[C@@H](CC(C)C)N(C)C(=O)[C@@H](C(C)C)NC(=O)[C@H](CC(C)C)N(C)C(=O)[C@@H](C)N(C)C1=O [Compound DL, [(3R,4R,5S)-4-Hydroxy-3-methyl-5-(methylamino)-1-({pyridin-4-ylmethyl}-methylamino)-hexanoic acid]^1[(R)-methyl-Sar]^3 cyclosporin A] | 5.7 | > 100 | – | – | –
14 | CC[C@H]1NC(=O)[C@@H]([C@H](O)[C@H](C)CCN(C)Cc2ccnn2C)N(C)C(=O)[C@@H](C(C)C)N(C)C(=O)[C@@H](CC(C)C)N(C)C(=O)[C@@H](CC(C)C)N(C)C(=O)[C@H](C)NC(=O)[C@@H](C)NC(=O)[C@@H](CC(C)C)N(C)C(=O)[C@@H](C(C)C)NC(=O)[C@H](CC(C)C)N(C)C(=O)[C@@H](C)N(C)C1=O [Compound DJ, [(3R,4R,5S)-4-Hydroxy-3-methyl-5-(methylamino)-1-({2-methyl-2H-pyrazol-3-ylmethyl}-methylamino)-hexanoic acid]^1[(R)-methyl-Sar]^3 cyclosporin A] | 5.4 | > 100 | – | – | –
15 | CC[C@H]1NC(=O)[C@@H]([C@H](O)[C@H](C)CCN(C)Cc2cnn(C)c2)N(C)C(=O)[C@@H](C(C)C)N(C)C(=O)[C@@H](CC(C)C)N(C)C(=O)[C@@H](CC(C)C)N(C)C(=O)[C@H](C)NC(=O)[C@@H](C)NC(=O)[C@@H](CC(C)C)N(C)C(=O)[C@@H](C(C)C)NC(=O)[C@H](CC(C)C)N(C)C(=O)[C@@H](C)N(C)C1=O [Compound DM, [(3R,4R,5S)-4-Hydroxy-3-methyl-5-(methylamino)-1-({1-methyl-1H-pyrazol-4-ylmethyl}-methylamino)-hexanoic acid]^1[(R)-methyl-Sar]^3 cyclosporin A] | 23 | – | – | – | –
16 | CC[C@H]1NC(=O)[C@@H]([C@H](O)[C@H](C)CCN2CCCC2)N(C)C(=O)[C@@H](C(C)C)N(C)C(=O)[C@@H](CC(C)C)N(C)C(=O)[C@@H](CC(C)C)N(C)C(=O)[C@H](C)NC(=O)[C@@H](C)NC(=O)C(CC(C)C)N(C)C(=O)[C@@H](C(C)C)NC(=O)[C@H](CC(C)C)N(C)C(=O)[C@@H](C)N(C)C1=O (stereo partly drawn) [Compound EF, [(3R,4R,5S)-4-Hydroxy-3-methyl-5-(methylamino)-1-(pyrrolidin-1-yl)-hexanoic acid]^1[(R)-methyl-Sar]^3 cyclosporin A] | 40 | – | – | – | –
